These results are taken from patent US8134007B2, “Pyridine derivatives” (Pfizer Inc., priority 2007, dated 2012).

What all share (assay type): cell-based
In test [1] the target is T1, Human Nav1.5 (Homo sapiens, UniProt Q14524).
T1 construct: expressed in transfected cells; host or cells: HEK293
The test can be described thus: Nav1.5 Assay (VIPR, HEK293 cells). The protocol:
The Nav1.5 assay is performed in HEK293 cells expressing Human Nav1.5 in the same way as the Nav1.8 assay.
Where replicate experiments were conducted resulting in multiple sets of data for a test compound, the data presented represent the average value from all replicate experiments.

For test [2], the target named is T2, Human Nav1.8 (Homo sapiens, UniProt Q9Y5Y9).
T2 construct: expressed in transfected cells; host or cells: HEK293
T2 sequence (Q9Y5Y9 whole entry): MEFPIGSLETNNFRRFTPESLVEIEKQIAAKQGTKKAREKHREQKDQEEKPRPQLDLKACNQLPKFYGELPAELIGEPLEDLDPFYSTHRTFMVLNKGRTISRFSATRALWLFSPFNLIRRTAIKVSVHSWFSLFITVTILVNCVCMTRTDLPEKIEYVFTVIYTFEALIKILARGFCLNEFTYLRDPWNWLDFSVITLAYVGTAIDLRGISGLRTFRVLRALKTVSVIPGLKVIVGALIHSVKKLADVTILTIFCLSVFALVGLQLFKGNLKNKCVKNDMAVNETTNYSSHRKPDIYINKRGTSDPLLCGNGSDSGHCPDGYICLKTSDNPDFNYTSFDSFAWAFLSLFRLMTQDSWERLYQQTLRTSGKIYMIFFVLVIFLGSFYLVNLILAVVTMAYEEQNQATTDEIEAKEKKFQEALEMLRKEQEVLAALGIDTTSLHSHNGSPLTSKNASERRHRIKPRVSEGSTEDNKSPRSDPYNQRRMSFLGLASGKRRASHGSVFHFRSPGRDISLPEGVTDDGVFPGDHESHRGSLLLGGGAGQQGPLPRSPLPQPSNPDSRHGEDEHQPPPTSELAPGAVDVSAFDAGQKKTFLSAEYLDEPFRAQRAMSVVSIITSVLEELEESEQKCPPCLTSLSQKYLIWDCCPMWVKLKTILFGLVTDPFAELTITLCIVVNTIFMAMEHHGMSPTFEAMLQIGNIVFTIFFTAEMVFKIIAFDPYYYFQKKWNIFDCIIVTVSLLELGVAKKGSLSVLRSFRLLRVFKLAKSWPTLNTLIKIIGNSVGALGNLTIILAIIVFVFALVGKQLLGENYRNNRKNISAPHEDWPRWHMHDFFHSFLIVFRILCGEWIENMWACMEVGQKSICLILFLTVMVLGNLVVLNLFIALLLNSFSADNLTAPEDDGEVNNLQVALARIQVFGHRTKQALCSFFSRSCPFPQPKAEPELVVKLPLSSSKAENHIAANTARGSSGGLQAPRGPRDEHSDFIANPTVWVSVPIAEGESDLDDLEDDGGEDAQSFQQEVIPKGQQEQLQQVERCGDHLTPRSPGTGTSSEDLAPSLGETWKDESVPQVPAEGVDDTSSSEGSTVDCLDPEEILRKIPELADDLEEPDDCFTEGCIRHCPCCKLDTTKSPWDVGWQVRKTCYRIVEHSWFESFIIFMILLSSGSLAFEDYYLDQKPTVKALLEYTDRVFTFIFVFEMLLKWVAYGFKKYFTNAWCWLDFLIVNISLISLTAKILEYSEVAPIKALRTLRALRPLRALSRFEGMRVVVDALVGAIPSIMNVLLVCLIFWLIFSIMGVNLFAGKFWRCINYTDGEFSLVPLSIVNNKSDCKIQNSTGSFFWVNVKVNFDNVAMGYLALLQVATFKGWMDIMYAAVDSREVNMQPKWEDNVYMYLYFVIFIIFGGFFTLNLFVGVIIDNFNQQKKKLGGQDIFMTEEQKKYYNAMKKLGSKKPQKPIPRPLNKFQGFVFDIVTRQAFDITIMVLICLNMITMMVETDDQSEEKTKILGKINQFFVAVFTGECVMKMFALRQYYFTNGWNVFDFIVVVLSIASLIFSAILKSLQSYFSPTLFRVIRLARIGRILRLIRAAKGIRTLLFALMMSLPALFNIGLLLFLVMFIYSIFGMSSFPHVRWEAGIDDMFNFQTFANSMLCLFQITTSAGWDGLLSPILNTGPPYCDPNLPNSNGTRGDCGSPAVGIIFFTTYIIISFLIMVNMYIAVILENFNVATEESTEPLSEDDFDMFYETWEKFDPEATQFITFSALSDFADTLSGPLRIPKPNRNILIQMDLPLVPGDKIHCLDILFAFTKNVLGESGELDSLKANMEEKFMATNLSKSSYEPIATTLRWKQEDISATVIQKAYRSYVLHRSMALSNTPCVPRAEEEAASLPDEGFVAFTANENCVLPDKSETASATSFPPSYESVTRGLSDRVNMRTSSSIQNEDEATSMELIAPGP
The experiment in a line: VIPR Assay for Nav1.8 Compounds (FRET membrane potential, deltamethrin opener).

The subject of test [3] is tetrodotoxin-sensitive voltage-gated sodium channels including NaV1.2, NaV1.3 and NaV1.7. The experiment in a line: TTX-S Assay (VIPR, SHSY-5Y cell line, veratridine opener). To be noted: read-out: TTX-S IC50, veratridine 50 μM opener, average of replicates.
[4] abbreviates: HEK293 cells expressing Human Nav1.5, average of replicates, read-out: Nav1.5 IC50.
Where [5] appears, read: VIPR FRET membrane potential assay, deltamethrin opener, average of replicates, read-out: Nav1.8 IC50.

Read-outs that look alike come from different tables or passages of the source.

T1 sequence (Q14524 whole entry): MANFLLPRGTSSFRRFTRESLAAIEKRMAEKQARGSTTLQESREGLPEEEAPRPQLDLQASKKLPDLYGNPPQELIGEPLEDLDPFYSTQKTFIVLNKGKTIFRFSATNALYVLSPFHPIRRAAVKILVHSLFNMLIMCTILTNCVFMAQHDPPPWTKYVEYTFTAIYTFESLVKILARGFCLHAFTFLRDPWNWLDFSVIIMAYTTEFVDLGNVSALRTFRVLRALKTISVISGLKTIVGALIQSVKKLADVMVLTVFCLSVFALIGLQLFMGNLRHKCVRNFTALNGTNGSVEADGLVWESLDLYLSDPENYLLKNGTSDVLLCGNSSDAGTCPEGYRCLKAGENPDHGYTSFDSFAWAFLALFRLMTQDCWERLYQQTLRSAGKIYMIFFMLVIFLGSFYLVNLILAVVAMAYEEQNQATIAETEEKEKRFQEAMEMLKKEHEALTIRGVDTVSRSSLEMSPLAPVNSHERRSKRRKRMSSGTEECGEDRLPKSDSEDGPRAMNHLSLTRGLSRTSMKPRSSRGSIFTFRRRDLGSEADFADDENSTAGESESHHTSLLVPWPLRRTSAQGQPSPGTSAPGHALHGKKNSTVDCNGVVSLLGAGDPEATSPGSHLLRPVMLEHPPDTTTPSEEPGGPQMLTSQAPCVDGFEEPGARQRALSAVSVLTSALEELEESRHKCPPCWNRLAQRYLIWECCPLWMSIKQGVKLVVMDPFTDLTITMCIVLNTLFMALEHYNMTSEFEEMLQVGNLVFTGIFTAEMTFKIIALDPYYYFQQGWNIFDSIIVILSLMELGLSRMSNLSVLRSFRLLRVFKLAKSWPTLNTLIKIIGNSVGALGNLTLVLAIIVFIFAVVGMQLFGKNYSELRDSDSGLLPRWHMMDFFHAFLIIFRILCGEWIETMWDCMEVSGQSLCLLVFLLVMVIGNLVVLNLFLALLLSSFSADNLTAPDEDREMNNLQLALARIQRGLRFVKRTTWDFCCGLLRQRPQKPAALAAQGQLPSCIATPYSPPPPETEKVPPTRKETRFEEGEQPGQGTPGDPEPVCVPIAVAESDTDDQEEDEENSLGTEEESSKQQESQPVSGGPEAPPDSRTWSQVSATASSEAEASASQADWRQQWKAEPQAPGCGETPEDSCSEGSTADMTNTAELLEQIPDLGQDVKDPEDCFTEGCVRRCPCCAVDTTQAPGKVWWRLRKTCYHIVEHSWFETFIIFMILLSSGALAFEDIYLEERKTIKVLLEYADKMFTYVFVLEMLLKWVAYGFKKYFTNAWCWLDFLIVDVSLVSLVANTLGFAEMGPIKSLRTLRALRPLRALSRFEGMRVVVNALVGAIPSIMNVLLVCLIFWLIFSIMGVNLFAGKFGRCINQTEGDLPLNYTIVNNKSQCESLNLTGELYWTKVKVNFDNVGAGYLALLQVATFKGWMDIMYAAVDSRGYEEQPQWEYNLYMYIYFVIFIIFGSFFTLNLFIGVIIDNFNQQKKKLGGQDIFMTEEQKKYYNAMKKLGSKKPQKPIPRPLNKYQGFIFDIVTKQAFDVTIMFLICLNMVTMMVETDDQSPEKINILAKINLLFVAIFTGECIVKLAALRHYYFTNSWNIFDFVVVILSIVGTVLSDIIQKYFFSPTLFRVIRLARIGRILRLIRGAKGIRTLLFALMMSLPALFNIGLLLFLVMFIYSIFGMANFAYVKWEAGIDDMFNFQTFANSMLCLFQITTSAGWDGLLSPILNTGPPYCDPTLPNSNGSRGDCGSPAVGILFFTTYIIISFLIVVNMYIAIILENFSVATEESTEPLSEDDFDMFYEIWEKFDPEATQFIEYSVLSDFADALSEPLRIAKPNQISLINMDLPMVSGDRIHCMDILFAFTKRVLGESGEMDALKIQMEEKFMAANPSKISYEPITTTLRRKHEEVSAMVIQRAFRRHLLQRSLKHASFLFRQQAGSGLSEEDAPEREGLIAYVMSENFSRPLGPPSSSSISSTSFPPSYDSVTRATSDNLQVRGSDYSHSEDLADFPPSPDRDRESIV

Regarding `CCOc1ccc(OC(F)(F)F)c(-c2ccc(NC(=O)c3ccnn3C)nc2N)c1` [Example 110, N-{6-amino-5-[5-ethoxy-2-(trifluoromethoxy)phenyl]pyridin-2-yl}-1-methyl-1H-pyrazole-5-carboxamide], the figures for the IC50 in test [1] (setting [4]) and in test [2] (setting [5]) were 2.3 µM and 1.5 µM, respectively.
Consider `Cc1nocc1C(=O)Nc1ccc(-c2cc(O)cc(Cl)c2Cl)c(N)n1` [Example 176], for which the results for the IC50 in test [1] (setting [4]) and in test [2] (setting [5]) were 10 µM and 1.4 µM, respectively.
Regarding `Nc1nc(NC(=O)c2ccno2)ccc1-c1ccccc1Cl` [Example 77, N-[6-Amino-5-(2-chlorophenyl)pyridin-2-yl]isoxazole-5-carboxamide], the results for the IC50 in test [2] (setting [5]) and in test [3] were 5 µM and > 32 µM, respectively.
As for `COCCOc1ccccc1-c1ccc(NC(=O)c2ccnn2C)nc1N` [Example 155], the IC50 in test [1] (setting [4]) was > 32 µM; in test [2] (setting [5]), 18 µM.
For `CCCOc1ccc(F)cc1-c1ccc(NC(=O)c2conc2C)nc1N` [Example 162], the IC50 came to 7.7 µM in test [1] (setting [4]) and 0.09 µM in test [2] (setting [5]).
Take `Cn1nncc1C(=O)Nc1ccc(-c2ccc(Cl)cc2Cl)c(N)n1` [Example 79, N-[6-Amino-5-(2,4-dichlorophenyl)pyridin-2-yl]-1-methyl-1H-1,2,3-triazole-5-carboxamide]: the IC50 in test [2] (setting [5]) was 5.8 µM; in test [3], 22 µM.
Turning to `COc1ccc(F)cc1-c1ccc(NC(=O)c2conc2C)nc1N` [Example 123], the half-inhibitory concentration (IC50) in test [1] (setting [4]) was > 32 µM; in test [2] (setting [5]) it was 2.4 µM.
With `CC(C)n1nccc1C(=O)Nc1ccc(-c2ccccc2Cl)c(N)n1` [Example 66, N-[6-Amino-5-(2-chlorophenyl)pyridin-2-yl]-1-isopropyl-1H-pyrazole-5-carboxamide], the IC50 was 2.4 µM in test [2] (setting [5]) and 11 µM in test [3].
Regarding `Cn1nccc1C(=O)Nc1ccc(-c2ccccc2OCC2CC2)c(N)n1` [Example 143], the half-maximal inhibitory concentration (IC50) in test [1] (setting [4]) was found to be 24 µM; in test [2] (setting [5]) it was 0.97 µM.
As to `Cc1oncc1C(=O)Nc1ccc(-c2cc(Cl)cc(Cl)c2Cl)c(N)n1` [Example 22, N-[6-Amino-5-(2,3,5-trichlorophenyl)pyridin-2-yl]-5-methylisoxazole-4-carboxamide], the IC50 in test [1] (setting [4]) turned out to be 4.6 µM; in test [2] (setting [5]), 1 µM.
As for `COc1ccc(C(=O)Nc2ccc(-c3cc(Cl)ccc3Cl)c(N)n2)c(OC)c1` [Example 105], the half-inhibitory concentration (IC50) in test [2] (setting [5]) worked out at 3.5 µM; in test [3], 7.7 µM.
On to `COCCCOc1ccccc1-c1ccc(NC(=O)c2ccnn2C)nc1N` [Example 157], for which the results for the IC50 in test [1] (setting [4]) and in test [2] (setting [5]) were > 32 µM and 9.5 µM, respectively.
For the molecule `COc1cccc(-c2ccc(NC(=O)c3conc3C)nc2N)c1OC` [Example 133], the values for the IC50 in test [1] (setting [4]) and in test [2] (setting [5]) were > 32 µM and 2.9 µM, respectively.
Turning to `CCOc1ccccc1-c1ccc(NC(=O)c2ccnn2C)nc1N` [Example 130], the results for the IC50 in test [1] (setting [4]) and in test [2] (setting [5]) were 22 µM and 2.3 µM, respectively.
As to `CCCOc1ccc(F)cc1-c1ccc(NC(=O)c2ccnn2C)nc1N` [Example 136], the IC50 in test [1] (setting [4]) was determined as 27 µM; in test [2] (setting [5]), 0.6 µM.
As for `Nc1nc(NC(=O)c2ccc(Cl)cc2)ccc1-c1cc(Cl)ccc1Cl` [Example 100], the IC50 in test [2] (setting [5]) was found to be 6.3 µM; in test [3], 4.4 µM.
For `Cc1nocc1C(=O)Nc1ccc(-c2cc(F)ccc2OC2CCOC2)c(N)n1` (centres unmarked) [Example 167], the IC50 in test [1] (setting [4]) is > 32 µM; in test [2] (setting [5]) it was 11 µM.
Consider `Nc1nc(NC(=O)c2ccccc2)ccc1-c1ccccc1Cl` [Example 98], for which the IC50 is 2 µM in test [2] (setting [5]) and 10 µM in test [3].
`COCCCOc1ccc(F)cc1-c1ccc(NC(=O)c2conc2C)nc1N` [Example 152]: the IC50 in test [1] (setting [4]) stood at 31 µM; in test [2] (setting [5]) it was 1.9 µM.
Turning to `COCCOc1ccc(Cl)c(-c2ccc(NC(=O)c3ccnn3C)nc2N)c1` [Example 151], the IC50 in test [1] (setting [4]) is > 32 µM; in test [2] (setting [5]), 5.1 µM.
`Cc1nocc1C(=O)Nc1ccc(-c2ccccc2CC(F)(F)F)c(N)n1` [Example 146]: the IC50 in test [1] (setting [4]) was 13 µM.
`COc1cccc(-c2ccc(NC(=O)c3ccnn3C)nc2N)c1OC` [Example 125]: the IC50 is > 32 µM in test [1] and 25 µM in test [2].
With `COC(C)COc1ccccc1-c1ccc(NC(=O)c2ccnn2C)nc1N` (centres unmarked) [Example 160], the IC50 was > 32 µM in test [1] (setting [4]) and 13 µM in test [2] (setting [5]).
For `COCCCOc1ccc(F)cc1-c1ccc(NC(=O)c2ccnn2C)nc1N` [Example 153], the concentration for half-maximal inhibition (IC50) was > 32 µM in test [1] (setting [4]) and 8.8 µM in test [2].
Regarding `COc1ccc(Cl)c(-c2ccc(NC(=O)c3ccnn3C(C)C)nc2N)c1` [Example 142], the figures for the half-inhibitory concentration (IC50) in test [1] (setting [4]) and in test [2] (setting [5]) were 17 µM and 0.96 µM, respectively.
For `CCCCOc1ccc(F)cc1-c1ccc(NC(=O)c2ccnn2C)nc1N` [Example 144] the same measures were 23 µM and 0.53 µM.
For the molecule `COCCCOc1ccccc1-c1ccc(NC(=O)c2conc2C)nc1N` [Example 156], the IC50 in test [1] (setting [4]) was 31 µM; in test [2] (setting [5]), 3.1 µM.
On to `COCCOc1ccc(Cl)c(-c2ccc(NC(=O)c3conc3C)nc2N)c1` [Example 170], for which the half-inhibitory concentration (IC50) in test [1] (setting [4]) came to 21 µM; in test [2] (setting [5]), 0.9 µM.
Take `Cn1nccc1C(=O)Nc1ccc(-c2cc(Cl)cc(Cl)c2Cl)c(N)n1` [Example 4, N-[6-Amino-5-(2,3,5-trichlorophenyl)pyridin-2-yl]-1-methyl-1H-pyrazole-5-carboxamide]: the IC50 in test [2] (setting [5]) was 0.68 µM.
As for `Cn1nccc1C(=O)Nc1ccc(-c2cc(O)cc(Cl)c2Cl)c(N)n1` [Example 177], the figures for the half-inhibitory concentration (IC50) in test [1] (setting [4]) and in test [2] (setting [5]) were 12 µM and 1.3 µM, respectively.
Regarding `COc1ccc(OC(F)(F)F)c(-c2ccc(NC(=O)c3conc3C)nc2N)c1` [Example 148], the figures for the 50% inhibitory concentration (IC50) in test [1] (setting [4]) and in test [2] (setting [5]) were 10 µM and 0.56 µM, respectively.
In the case of `CCOc1ccc(Cl)c(-c2ccc(NC(=O)c3ccnn3C)nc2N)c1` [Example 150], the concentration for half-maximal inhibition (IC50) in test [1] (setting [4]) is 19 µM; in test [2] (setting [5]) it was 2.5 µM.
Take `COCc1ccc(Cl)c(-c2ccc(NC(=O)c3conc3C)nc2N)c1` [Example 138]: the 50% inhibitory concentration (IC50) in test [1] (setting [4]) is 23 µM; in test [2] (setting [5]) it was 1 µM.
On to `Cc1nocc1C(=O)Nc1ccc(-c2cc(F)ccc2OC(C)C)c(N)n1` [Example 145], for which the half-maximal inhibitory concentration (IC50) was found to be 28 µM in test [1] (setting [4]) and 1.5 µM in test [2] (setting [5]).
For `COCc1ccccc1-c1ccc(NC(=O)c2conc2C)nc1N` [Example 129] the same measures were 20 µM and 3.5 µM.
Consider `COCCOc1ccc(F)cc1-c1ccc(NC(=O)c2ccnn2C)nc1N` [Example 147], for which the figures for the IC50 in test [1] (setting [4]) and in test [2] (setting [5]) were > 32 µM and 12 µM, respectively.
Consider `Cn1nccc1C(=O)Nc1ccc(-c2ccccc2CC(F)(F)F)c(N)n1` [Example 139], for which the results for the IC50 in test [1] (setting [4]) and in test [2] (setting [5]) were 7.5 µM and 2.1 µM, respectively.
For `Cc1nocc1C(=O)Nc1ccc(-c2ccccc2OCC(F)(F)F)c(N)n1` [Example 134] the same measures were 18 µM and 0.41 µM.
On to `CCOc1ccc(Cl)c(-c2ccc(NC(=O)c3conc3C)nc2N)c1` [Example 154], for which the 50% inhibitory concentration (IC50) in test [1] (setting [4]) was found to be 10 µM; in test [2] (setting [5]), 0.47 µM.
With `COC(C)COc1ccc(F)cc1-c1ccc(NC(=O)c2ccnn2C)nc1N` (centres unmarked) [Example 158], the IC50 is > 32 µM in test [1] (setting [4]) and 15 µM in test [2] (setting [5]).
In the case of `Cc1nocc1C(=O)Nc1ccc(-c2cc(Cl)cc(Cl)c2Cl)c(N)n1` [Example 28, N-[6-Amino-5-(2,3,5-trichlorophenyl)pyridin-2-yl]-3-methylisoxazole-4-carboxamide], the values for the 50% inhibitory concentration (IC50) in test [1] (setting [4]) and in test [2] (setting [5]) were 9.5 µM and 0.67 µM, respectively.
For `CCOc1ccc(F)cc1-c1ccc(NC(=O)c2ccnn2C)nc1N` [Example 132] the same measures were > 32 µM and 1.5 µM.
As for `COC(C)COc1ccc(F)cc1-c1ccc(NC(=O)c2conc2C)nc1N` (centres unmarked) [Example 159], the IC50 in test [1] (setting [4]) is > 32 µM; in test [2] (setting [5]), 4.7 µM.
With `COCCOc1ccc(F)cc1-c1ccc(NC(=O)c2conc2C)nc1N` [Example 169], the IC50 in test [1] (setting [4]) was > 32 µM; in test [2] (setting [5]), 4.9 µM.
Regarding `CC(C)COc1ccccc1-c1ccc(NC(=O)c2ccnn2C)nc1N` [Example 131], the IC50 stood at 18 µM in test [1] (setting [4]) and 0.64 µM in test [2] (setting [5]).
Take `COCCOc1ccccc1-c1ccc(NC(=O)c2conc2C)nc1N` [Example 149]: the half-maximal inhibitory concentration (IC50) in test [1] (setting [4]) was > 32 µM; in test [2] (setting [5]), 4 µM.
In the case of `CCOc1ccc(F)cc1-c1ccc(NC(=O)c2conc2C)nc1N` [Example 135], the IC50 turned out to be 26 µM in test [1] (setting [4]) and 0.28 µM in test [2] (setting [5]).
As for `Cc1ccc(OC(F)(F)F)c(-c2ccc(NC(=O)c3ccnn3C)nc2N)c1` [Example 137], the concentration for half-maximal inhibition (IC50) came to 18 µM in test [1] (setting [4]) and 1.2 µM in test [2] (setting [5]).
For the molecule `COCc1ccc(Cl)c(-c2ccc(NC(=O)c3ccnn3C)nc2N)c1` [Example 141], the results for the IC50 in test [1] (setting [4]) and in test [2] (setting [5]) were > 32 µM and 5.4 µM, respectively.
Consider `COC(C)COc1ccccc1-c1ccc(NC(=O)c2conc2C)nc1N` (centres unmarked) [Example 161], for which the half-maximal inhibitory concentration (IC50) in test [1] (setting [4]) was > 32 µM; in test [2] (setting [5]), 6.7 µM.
For `CC(C)Oc1ccc(F)cc1-c1ccc(NC(=O)c2ccnn2C)nc1N` [Example 109, N-[6-amino-5-(5-fluoro-2-isopropoxyphenyl)pyridin-2-yl]-1-methyl-1H-pyrazole-5-carboxamide], the 50% inhibitory concentration (IC50) amounted to 27 µM in test [1] (setting [4]) and 5.7 µM in test [2] (setting [5]).
For `Cc1nocc1C(=O)Nc1ccc(-c2cc(Cl)ccc2OCC(F)(F)F)c(N)n1` [Example 163], the half-inhibitory concentration (IC50) worked out at 9.9 µM in test [1] (setting [4]) and 0.48 µM in test [2] (setting [5]).
As for `COc1ccc(OC(F)(F)F)c(-c2ccc(NC(=O)c3ccnn3C)nc2N)c1` [Example 140], the results for the IC50 in test [1] (setting [4]) and in test [2] (setting [5]) were 18 µM and 0.43 µM, respectively.

What is called IC50 is the concentration needed to halve the response being measured.
